Results from ChEMBL document CHEMBL6120945, “Peptidomimetic Analogues Act as Effective Inhibitors against SARS-CoV-2 by Blocking the Function of Cathepsin L” (J Med Chem, 2024).
Where a SMILES comes first, the peptide text is derived from it. [ ]: non-standard residue; d: D form. The star is where a group is joined. ξ: configuration not given here. Hydrocinnamoyl = O=C(CCc1ccccc1)*; Nicotinoyl = O=C(c1cccnc1)*; ξF = NC(Cc1ccccc1)C(=O)O; Cbz = O=C(OCc1ccccc1)*; Bz = O=C(c1ccccc1)*

Legend:
[1] = molecular target: Replicase polyprotein 1ab (Severe acute respiratory syndrome coronavirus 2, UniProt P0DTD1); assay: Inhibition of recombinant SARS-CoV-2 3CLpro using MCA-AVLQSGFR-Lys(Dnp)-Lys-NH2 as substrate incubated for 1.5 hrs by fluorescence based analysis
[2] = Inhibition of human recombinant Cathepsin L-like protease using Z-FR-AMC as substrate preincubated for 30 mins followed by substrate addition and measured after 1.5 hrs by fluorescence based analysis

| SMILES | IC50 [1] | IC50 [2] |
| --- | --- | --- |
| CC(C)[C@H](NC(=O)/C=C/c1ccccc1)C(=O)N[C@H](C=O)Cc1ccccc1 | > 10000 nM | 22 nM |
| CC(C)C[C@H](NC(=O)/C=C/c1ccc(Cl)cc1)C(=O)N[C@H](C=O)Cc1ccccc1 | > 10000 nM | 23.5 nM |
| CC(C)C[C@H](NC(=O)c1ccccc1)C(=O)N[C@H](C=O)Cc1ccccc1 (Bz-Leu-Phe-aldehyde) | > 10000 nM | 7.56 nM |
| CC(C)C[C@H](NC(=O)c1ccc(Br)cc1)C(=O)N[C@H](C=O)Cc1ccccc1 | > 10000 nM | 9.59 nM |
| CC(C)C[C@H](NC(=O)c1ccccc1F)C(=O)N[C@H](C=O)Cc1ccccc1 | > 10000 nM | 9.66 nM |
| CC(C)C[C@H](NC(=O)c1cccnc1)C(=O)N[C@H](C=O)Cc1ccccc1 (Nicotinoyl-Leu-Phe-aldehyde) | > 10000 nM | 14.4 nM |
| C[C@H](NC(=O)/C=C/c1ccccc1)C(=O)N[C@H](C=O)Cc1ccccc1 | > 10000 nM | 42.1 nM |
| CCCC[C@H](NC(=O)/C=C/c1ccccc1)C(=O)N[C@H](C=O)Cc1ccccc1 | > 10000 nM | 157 nM |
| CC(C)C[C@H](NC(=O)/C=C/c1ccccc1)C(=O)N[C@H](C=O)Cc1cccc(F)c1 | > 10000 nM | 162 nM |
| CC(C)C[C@H](NC(=O)Cc1c[nH]c2ccccc12)C(=O)N[C@H](C=O)Cc1ccccc1 | > 10000 nM | 3.18 nM |
| CC(C)C[C@H](NC(=O)C1CCC(F)(F)CC1)C(=O)N[C@H](C=O)Cc1ccccc1 | > 10000 nM | 6.29 nM |
| CC(C)C[C@H](NC(=O)/C=C/c1ccccc1)C(=O)N[C@H](C=O)Cc1ccc([N+](=O)[O-])cc1 | > 10000 nM | 345 nM |
| CC(C)C[C@H](NC(=O)/C=C/c1ccccc1)C(=O)N[C@H](C=O)Cc1ccc(C(F)(F)F)cc1 | > 10000 nM | 253 nM |
| CC(C)C[C@H](NC(=O)c1ccc(F)cc1)C(=O)N[C@H](C=O)Cc1ccccc1 | > 10000 nM | 9.85 nM |
| CC(C)C[C@H](NC(=O)c1ccoc1)C(=O)N[C@H](C=O)Cc1ccccc1 | > 10000 nM | 24.2 nM |
| CC[C@H](C)[C@H](NC(=O)/C=C/c1ccccc1)C(=O)N[C@H](C=O)Cc1ccccc1 | > 10000 nM | 170 nM |
| CC(C)C[C@H](NC(=O)C1CCCCC1)C(=O)N[C@H](C=O)Cc1ccccc1 | > 10000 nM | 6.06 nM |
| CC(C)C[C@H](NC(=O)/C=C/c1ccccc1F)C(=O)N[C@H](C=O)Cc1ccccc1 | > 10000 nM | 16.5 nM |
| CC(C)C[C@H](NC(=O)/C=C/c1ccc(Br)cc1)C(=O)N[C@H](C=O)Cc1ccccc1 | > 10000 nM | 38.4 nM |
| CC(C)C[C@H](NC(=O)/C=C/c1ccccc1)C(=O)N[C@H](C=O)CCc1ccccc1 | > 10000 nM | 26 nM |
| CC(C)C[C@H](NC(=O)c1ccco1)C(=O)N[C@H](C=O)Cc1ccccc1 | > 10000 nM | 17.4 nM |
| CC(C)C[C@H](NC(=O)/C=C/c1ccccc1)C(=O)N[C@H](C=O)CC1CCCCC1 | > 10000 nM | 47.8 nM |
| CC(C)C[C@H](NC(=O)c1ccc(-c2ccccc2)cc1)C(=O)N[C@H](C=O)Cc1ccccc1 | > 10000 nM | 20.9 nM |
| CCC(=O)[C@H](Cc1ccccc1)NC(=O)[C@H](CC(C)C)NC(=O)/C=C/c1ccccc1 | > 10000 nM | > 1000 nM |
| O=C[C@H](Cc1ccccc1)NC(=O)[C@H](Cc1cccc(F)c1)NC(=O)/C=C/c1ccccc1 | > 10000 nM | 6.56 nM |
| CC(C)C[C@H](NC(=O)c1cccc(F)c1)C(=O)N[C@H](C=O)Cc1ccccc1 | > 10000 nM | 7.5 nM |
| CC(C)C[C@H](NC(=O)/C=C/c1ccc(F)cc1)C(=O)N[C@H](C=O)Cc1ccccc1 | > 10000 nM | 20.1 nM |

| SMILES | IC50 [1] | IC50 [2] |
| --- | --- | --- |
| CC(C)C[C@H](NC(=O)/C=C/c1ccccc1)C(=O)N[C@@H](Cc1ccccc1)C(N)=O | > 10000 nM | > 1000 nM |
| COc1ccc(/C=C/C(=O)N[C@@H](CC(C)C)C(=O)N[C@H](C=O)Cc2ccccc2)cc1 | > 10000 nM | 55.4 nM |
| O=C[C@H](Cc1ccccc1)NC(=O)[C@H](Cc1ccc(Cl)cc1)NC(=O)/C=C/c1ccccc1 | > 10000 nM | 8.91 nM |
| CSCC[C@@H](C=O)NC(=O)[C@H](CC(C)C)NC(=O)/C=C/c1ccccc1 | > 10000 nM | 29.4 nM |
| CC(C)C[C@H](NC(=O)C1CCOCC1)C(=O)N[C@H](C=O)Cc1ccccc1 | > 10000 nM | 20.2 nM |
| CC(C)C[C@H](NC(=O)c1ccc[nH]1)C(=O)N[C@H](C=O)Cc1ccccc1 | > 10000 nM | 37.7 nM |
| CC(C)C[C@H](NC(=O)c1ccsc1)C(=O)N[C@H](C=O)Cc1ccccc1 | > 10000 nM | 8.15 nM |
| C=CC(=O)[C@H](Cc1ccccc1)NC(=O)[C@H](CC(C)C)NC(=O)/C=C/c1ccccc1 | > 10000 nM | > 1000 nM |
| CC(C)C[C@H](NC(=O)c1ccncc1)C(=O)N[C@H](C=O)Cc1ccccc1 | > 10000 nM | 8.46 nM |
| CC(C)C[C@H](NC(=O)/C=C/c1ccccc1)C(=O)N[C@@H](C=O)Cc1ccccc1 | > 10000 nM | > 1000 nM |
| CCC[C@H](NC(=O)/C=C/c1ccccc1)C(=O)N[C@H](C=O)Cc1ccccc1 | > 10000 nM | 125 nM |
| CC(C)C[C@H](NC(=O)/C=C/c1ccccc1)C(=O)N[C@@H](Cc1ccccc1)C(=O)CCl | > 10000 nM | 9.87 nM |
| O=C[C@H](Cc1ccccc1)NC(=O)[C@H](Cc1ccc(Br)cc1)NC(=O)/C=C/c1ccccc1 | > 10000 nM | 11.6 nM |
| CC(C)C[C@H](NC(=O)c1ccc(Cl)cc1)C(=O)N[C@H](C=O)Cc1ccccc1 | > 10000 nM | 9.47 nM |
| CC(C)C[C@H](NC(=O)c1ccccn1)C(=O)N[C@H](C=O)Cc1ccccc1 | > 10000 nM | 26.4 nM |
| O=C[C@H](Cc1ccccc1)NC(=O)[C@H](CC1CCCCC1)NC(=O)/C=C/c1ccccc1 | > 10000 nM | 53 nM |
| CC(C)C[C@H](NC(=O)CCc1ccccc1)C(=O)N[C@H](C=O)Cc1ccccc1 (Hydrocinnamoyl-Leu-Phe-aldehyde) | > 10000 nM | 18.2 nM |
| CC(C)C[C@H](NC(=O)/C=C/c1ccccc1Cl)C(=O)N[C@H](C=O)Cc1ccccc1 | > 10000 nM | 9.57 nM |
| CC(C)C[C@H](NC(=O)c1ccc([N+](=O)[O-])cc1)C(=O)N[C@H](C=O)Cc1ccccc1 | > 10000 nM | 8.19 nM |
| CC(C)C[C@H](NC(=O)/C=C/c1cccc(Cl)c1)C(=O)N[C@H](C=O)Cc1ccccc1 | > 10000 nM | 27.1 nM |
| O=C[C@H](Cc1ccccc1)NC(=O)[C@H](Cc1ccccc1)NC(=O)/C=C/c1ccccc1 | > 10000 nM | 6.65 nM |
| CC(C)C[C@H](NC(=O)/C=C/c1ccccc1)C(=O)N[C@H](C=O)Cc1ccccc1Br | > 10000 nM | 180 nM |
| CC(C)C[C@H](NC(=O)c1cc[nH]c1)C(=O)N[C@H](C=O)Cc1ccccc1 | > 10000 nM | 37.3 nM |
| CC(C)C[C@H](NC(=O)/C=C/c1ccccc1)C(=O)N[C@H](C=O)Cc1ccccc1F | > 10000 nM | 23.4 nM |
| CC(C)C[C@H](NC(=O)/C=C/c1ccc(C(F)(F)F)cc1)C(=O)N[C@H](C=O)Cc1ccccc1 | > 10000 nM | 75.8 nM |
| CC(C)[C@H](NC(=O)OCc1ccccc1)C(=O)NC(C=O)Cc1ccccc1 (stereo partly drawn) (Cbz-Val-[ξF]-aldehyde) |  | 19900 nM |
